In patent US20120269834A1, “IMMUNOGLOBULIN CLEAVAGE FRAGMENT VACCINE COMPOSITIONS” (priority 2010, published 2012):
Several values for one entry are separate records, joined by “and”; a condition that tells them apart may be missing. Identical values can stand only once. Ends that are not written are not given here. * marks the point of attachment. Biotin = O=C1N[C@H]2[C@H](CS[C@H]2CCCCC(=O)*)N1

Assays:
human IgG1 = human IgG1 (Homo sapiens, UniProt P01857); experiment: action of human and bacterial proteases on human IgG1 (Table 1); format: biochemical; conditions: for Major Product: None = no detectable cleavage in 24 hours; for Cleaved Site: human IgG1 heavy chain, EU numbering
Description: Table 1 is a summary of the findings concerning the action of human proteases and two bacterial proteases on human IgG1. The term “Coagulation proteinases” refers to serum coagulation cascade proteins including; FXIIa, FIXa, FXa, thrombin and activated protein C; plasmin was plasminogen co-incubated with plasminogen activators; tPA, streptokinase and staphylokinase; “plasminogen activators alone” are without plasminogen; and the MMPs were recombinant proteinases obtained either as the active form or the pro-enzyme as detailed in the Materials; and “None” denotes no detectable cleavage in 24 hours. Except where indicated all enzymes where human. The residue designations are for the EU numbering system for the IgG1 antibody heavy chain where the 25 residues of SEQ ID NO: 1 corresponds to residues 219 through 243 of the complete mature heavy chain.

[1] = molecular target: Fab fragment of the 2095-2 antibody; conditions: 25° C; for kd / ka: 1:1 (Langmuir) model; for ka: global fit of three Fab surface densities; for Kd: calculated KD
Description: The specificity of binding was further examined using a Fab fragment of the 2095-2 antibody using a surface plasmon resonance platform (Biacore). Briefly, the Fab was immobilized to a CM5 sensor chip in a Biacore 2000 at three different surface densities (8500, 1650, and 350 RU) using standard NHS/EDC coupling. The running buffer contained 10 mM HEPES pH 7.4, 150 mM NaCl, and 0.01% Tween-20. Data were collected at 25° C.
Three N-terminally biotinylated peptides were tested for binding of to the immobilized Fab: WT, representing the expected sequence of a peptide fragment from a human IgG1 cleavage site after cleavage by the Streptococcus pyogenes IdeS protease; E233A, representing a variant of having a single alanine substitution at the amino acid residue four positions upstream of the C-terminus; and L234A, a variant having a single alanine substitution at the amino acid residue three positions upstream from the C-terminus. The peptides were modified by substituting serine for cysteine to make them compatible with the coupling chemistry and preserve the monomeric structure.
Peptides Wild type and E233A were tested in a 3-fold dilution series using 588 nM and 2.9 uM as the highest concentration, respectively. Peptide L234A was tested at 14.7 uM as the highest concentration in a 2-fold dilution series. Each peptide concentration series was tested in triplicate over the three different density Fab surfaces. The association and dissociation were monitored for 1 minute. Surfaces were regenerated with a 12 second injection of 1/500 dilution of phosphoric acid.

platelets = experiment: circulating platelet counts in dogs; format: in vivo, dog
Description: First, the c7E3 antibody antigen binding and platelet depletion parameters were established in dogs.
c7E3 IgG and c7E3 IgG single-cleaved by IdeS protease were also compared in vivo. Three groups of 5 animals received either saline control, intact c7E3 IgG (0.05 mg/kg) or c7E3 single-cleaved IgG (0.05 mg/kg). Platelet counts were monitored at baseline and at 2, 24, 48, 72 and 96 hours post-administration. Limiting the study to 5 days minimized the likelihood of anti-c7E3 immune responses that might confound the interpretation of the results. The results are presented in FIG. 3 as the mean platelet count±SD for each animal group at each time point. The extent of the error bars connotes the normal variability of platelet counts in different animals (for example, the predose counts for the 5 animals in the single-cleaved IgG treatment group were 175,000, 355,000, 305,000, 276,000 and 334,000 per μL, respectively).
To be consistent with the prior experiments, the variants of c7E3 were all administered at the 0.05 mg/kg dose. The unique aspect of the experiment (groups 6 and 7) involves the infusion of the first targeting mAb followed by the cleavage site specific mAb after a 10 minute delay. […] Platelet counts were monitored over a 96-hour period. […]

[2] = tested on: platelet surface IIb/III3 receptors; experiment: platelet aggregation assay; format: cell-based; conditions: 5 μM ADP; compared with intact c7E3 IgG
Description: c7E3 inhibits platelet aggregation by binding to platelet surface IIb/III3 receptors—thereby blocking the ability of fibrinogen to bind to the receptors on activated platelets and to clump them together. The respective inhibitory profiles of intact and single-cleaved c7E3 IgG were tested in a platelet aggregation assay. Platelet aggregation is measured as an increase of light transmission through a platelet suspension after activation with a physiological agonist. The inhibition is compared to control aggregation to 5 μM adenosine diphosphate (ADP). The percent inhibition was calculated as: control aggregation—test aggregation X 100%, divided by control aggregation.

[3] = tested on: cleavage site specific analogueue peptide; experiment: ELISA titers to the peptide analogueue after immunization of rabbits; format: in vivo, rabbit; conditions: reciprocal of the dilution at which a signal was detectable, individual immunized rabbits
Source text: The procedure described in Example 3 verified that test subject rabbits have had previously developed immune titers to Staph. aureus antigens which would provide for natural bacterial targeting antibodies. To determine if rabbits would generated a sufficiently specific and robust cleavage site specific antibody response after vaccination, with cleavage site peptides, to protect against a bacterial challenge, the following experiment was perfomed where rabbits were immunized with a GluV8-cleavage site peptide analogueue (residues 7-15 of SEQ ID NO: 1, […]) conjugated to the immunogen KLH.
Following immunization, the reactivity of rabbit serum to the peptide analogueue was tested by ELISA. […] Cleavage site specific antibodies were also detected in the wiffle ball fluids of all six rabbits, with the same animal (657) having a low level of detectible antibodies.

S. aureus (ATCC 29213) = experiment: wiffle ball (tissue cage) S. aureus infection model in rabbits; format: in vivo
Source text: In order to test the capacity of cleavage site specific antibodies to rescue cleaved IgGs in vivo, a model for bacterial infection employing a “tissue cage” (Fernandez J A, et. al. (1997) Antimicrob. Agents Chemother. 43(3):667-671) was adopted. In this system, a wiffle ball is surgically implanted subcutaneously in the dorsal cervical area. The model allows the infectious agents to be localized within an easily accessible fluid compartment, a tissue pouch, and has been used to assess the efficacy of antibiotics against bacteria.
In the final phase of the study, the immunized and non-immunized rabbits were inoculated with 6.2 log10 colony forming units (CFUs) of S. aureus (ATCC 29213) directly into the wiffle-ball compartments.
The bacterial counts and test subject viability were monitored over the course of two weeks for bacterial counts and survival. The data shown in FIG. 9 indicate that during the first week of the study, the average bacterial counts for control animals were several logs higher than cleavage site specific vaccinated animals. For example, on day 2 the control had 7.2 log10 CFU/ml wiffle ball fluid while the immunized group had 5.2 log10 CFU/ml wiffle ball fluid.

Chain of human IgG1 (P01857 1-330 isoform P01857-1, other chains not shown): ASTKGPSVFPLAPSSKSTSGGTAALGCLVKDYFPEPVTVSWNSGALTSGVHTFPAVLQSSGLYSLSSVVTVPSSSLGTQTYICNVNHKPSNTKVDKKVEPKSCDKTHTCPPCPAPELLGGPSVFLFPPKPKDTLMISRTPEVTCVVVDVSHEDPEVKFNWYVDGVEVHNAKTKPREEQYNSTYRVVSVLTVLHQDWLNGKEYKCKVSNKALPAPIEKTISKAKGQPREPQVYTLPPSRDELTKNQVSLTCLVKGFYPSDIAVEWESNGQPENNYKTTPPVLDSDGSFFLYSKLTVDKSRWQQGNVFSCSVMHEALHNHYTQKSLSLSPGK

## Matrilysin (MMP-7): recombinant human MMP
Human IgG1
  Major Product: F(ab′)2 +
  Cleaved Site: Leu^234-

## Stromelysin (MMP-3): recombinant human MMP
Human IgG1
  Major Product: F(ab′)2 +
  Cleaved Site: Pro^232-

## Cathepsin D: human protease
Human IgG1
  Major Product: None

## Biotin-TSPPSPAPELLG [Wt]
[1]
  kd: 0.00443 ± 0.02 s⁻¹
  ka: 5.22 ± 0.04 M-1s-1 × 10^−5
  Kd: 0.0085 µM

## Collagenase 2 (MMP-8): recombinant human MMP
Human IgG1
  Major Product: None

## Cathepsin G: human serine endopeptidase
Human IgG1
  Major Product: F(ab′)2 +
  Cleaved Site: Glu^233-

## c7E3 single-cleaved IgG: c7E3 IgG single-cleaved in the lower hinge by IdeS protease
platelets; 0.05 mg/kg, groups of 5 animals, monitored to 96 hours
  effect on platelet numbers: essentially without effect
platelets; FIG. 12 study, groups of 3 animals, c7E3 variants 0.05 mg/kg, 2095-2 0.5 mg/kg
  effect on platelet numbers: without effect
[2]
  binding/inhibition of platelet aggregation after single lower hinge cleavage by IdeS: no loss of binding/inhibition

## C-T-S-P-P-S-P-S-P-A-P-E (CTSPPSPSPAPE; also: conjugated to KLH) [Glutamyl endopeptidase cleavage site analogueue peptide conjugated to keyhole limpet hemocyanin, used to vaccinate rabbits]
[3]
  Serum (titer): 640 and 12,800 and 51,000 and 820,000 and 205,000
[3]; wiffle ball fluid
  Wiffle ball (titer): 3,200 and 12,800 (3×) and 51,000 and 320
S. aureus (ATCC 29213); day 2, immunized rabbits inoculated with 6.2 log10 CFUs
  average bacterial counts: 5.2 log10 CFU/ml wiffle ball fluid
S. aureus (ATCC 29213); end of the two week study
  animals viable: 100%

## Glutamyl endopeptidase I (Glu V8 protease): glutamyl endopeptidase I from Staph. aureus
Human IgG1
  Major Product: F(ab′)2 +
  Cleaved Site: Glu^233-

## Neutrophil elastase: human serine endopeptidase
Human IgG1
  Major Product: Fab + Fc
  Cleaved Site: Thr^223-

## Interstitial collagenase (MMP-1): recombinant human MMP
Human IgG1
  Major Product: None

## Biotin-TSPPSPAPEALG [L234A]
[1]
  kd: 1.03 ± 0.01 s⁻¹
  ka: 1.24 ± 0.01 M-1s-1 × 10^−5
  Kd: 8.34 µM

## Biotin-TSPPSPAPALLG [E233A]
[1]
  kd: 0.1070 ± 0.04 s⁻¹
  ka: 7.29 ± 0.03 M-1s-1 × 10^−5
  Kd: 0.147 µM
